According to patent publication US9302999B2, “Substituted triazoles as herbicides” (E. I. DU PONT DE NEMOURS AND COMPANY, priority 2012, dated 2016):

Assays:
Type in all cases: in vivo
[1] = system: nutsedge, yellow (yellow nutsedge, Cyperus esculentus); assay: Test C pre-/postemergence: nutsedge, yellow
Outline: (§1)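 Preemergence on seeds in loam/sand, postemergence on 2–18 cm (1–4-leaf) plants in peat-based medium; compounds in non-phytotoxic solvent with surfactant. After 13–15 days in greenhouse, visual rating versus controls, 0 (no effect) to 100 (complete control).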

[2] = system: velvetleaf (Abutilon theophrasti); assay: Test C pre-/postemergence: velvetleaf
Outline: as §1

kochia (Kochia scoparia) = assay: Test C pre-/postemergence: kochia
Outline: as §1

[3] = system: large crabgrass (Digitaria sanguinalis); assay: Test C pre-/postemergence: large crabgrass
Outline: as §1

[4] = system: ducksalad (Heteranthera limosa); assay: Test B flooded paddy: ducksalad; conditions: Flood; 250 g ai/ha; applied to paddy water at 2-leaf stage; visually evaluated after 13 to 15 days
Outline: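 Response scored visually, 0–100 relative to controls, 13–15 days after the compound was applied into paddy water; plants were at the 2-leaf stage in pots kept flooded to 3 cm.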

wild oat (Avena fatua) = assay: Test C pre-/postemergence: wild oat
Outline: as §1

corn (Zea mays) [5] = assay: Test C pre-/postemergence: corn
Outline: as §1

corn (Zea mays) [6] = assay: Test A pre-/postemergence: corn; conditions: Zea mays, 240 h; for Corn plant response rating (crop injury, 0 = no effect, 100 = complete kill) at 125 g/ha: 125 g ai/ha
Outline: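 Pre: directed soil spray after planting in loam + sand. Post: same formulation (non-phytotoxic solvent + surfactant) on 1–2-leaf plants, 2–10 cm. Greenhouse ~10 d; visual injury 0–100 vs untreated.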

[7] = system: chickweed (common chickweed, Stellaria media); assay: Test C postemergence: chickweed
Outline: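 Pot-grown plants in peat/vermiculite medium sprayed postemergence at 2–18 cm height (1- to 4-leaf stage). Kept in greenhouse 13 to 15 days, then visually rated against untreated controls on a 0–100 scale (0 = no effect, 100 = complete control).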

[8] = system: foxtail, giant (giant foxtail, Setaria faberii); assay: Test C pre-/postemergence: foxtail, giant
Outline: as §1

[9] = system: ragweed (common ragweed, Ambrosia elation); assay: Test C pre-/postemergence: ragweed
Outline: as §1

[10] = Postemergence, 31 g ai/ha, scale 0 to 100 (0 no effect, 100 complete control)
[11] = Postemergence, 62 g ai/ha, scale 0 to 100 (0 no effect, 100 complete control)
[12] = Postemergence, 125 g ai/ha, scale 0 to 100, 0 no effect, 100 complete control
[13] = Postemergence, 250 g ai/ha, scale 0 to 100 (0 no effect, 100 complete control)
[14] = Preemergence, 31 g ai/ha, scale 0 (no effect) to 100 (complete control)
[15] = Preemergence, 62 g ai/ha, scale 0 to 100, 0 no effect, 100 complete control
[16] = Preemergence, 125 g ai/ha, scale 0 to 100, 0 no effect, 100 complete control
[17] = Preemergence, 250 g ai/ha, scale 0 to 100, 0 no effect, 100 complete control
[18] = Postemergence, 250 g ai/ha, scale 0 to 100

In the case of CCOc1nn(-c2ccc(F)cc2)nc1Cc1ccnc(C(F)(F)F)c1 [Compound 196, 4-[[5-ethoxy-2-(4-fluorophenyl)-2H-1,2,3-triazol-4-yl]methyl]-2-(trifluoromethyl)pyridine], the “Plant response rating, Nutsedge, Yellow” value [1, 10] is reported as 10, the “Plant response rating, Nutsedge, Yellow” value [1, 11] is reported as 10 and the “Plant response rating, Nutsedge, Yellow” value [1, 12] is reported as 15. The “Plant response rating, Nutsedge, Yellow” value [1, 13] was 20, the “Plant response rating, Nutsedge, Yellow” value [1, 14] was 0 and the “Plant response rating, Nutsedge, Yellow” value [1, 15] was 0. For the same compound, the “Plant response rating, Nutsedge, Yellow” value [1, 16] was 5, the “Plant response rating, Nutsedge, Yellow” value [1, 17] was 10 and the “Plant response rating, Velvetleaf” value [2, 10] was 55. The “Plant response rating, Velvetleaf” value [2, 11] was 65, the “Plant response rating, Velvetleaf” value [2, 12] was 75 and the “Plant response rating, Velvetleaf” value [2, 13] was 80. The “Plant response rating, Velvetleaf” value [2, 14] was 60, the “Plant response rating, Velvetleaf” value [2, 15] was 70 and the “Plant response rating, Velvetleaf” value [2, 16] was 80. For the same compound, the “Plant response rating, Velvetleaf” value [2, 17] was 100, the “Plant response rating, Kochia” value (kochia (Kochia scoparia); [10]) was 85 and the “Plant response rating, Kochia” value (kochia (Kochia scoparia); [11]) was 90. The “Plant response rating, Kochia” value (kochia (Kochia scoparia); [12]) was 90, the “Plant response rating, Kochia” value (kochia (Kochia scoparia); [13]) was 90 and the “Plant response rating, Kochia” value (kochia (Kochia scoparia); [14]) was 90. The “Plant response rating, Kochia” value (kochia (Kochia scoparia); [15]) was 98, the “Plant response rating, Kochia” value (kochia (Kochia scoparia); [16]) was 98 and the “Plant response rating, Kochia” value (kochia (Kochia scoparia); [17]) was 98. The “Plant response rating, Crabgrass, Large” value [3, 10] was 80, the “Plant response rating, Crabgrass, Large” value [3, 11] was 85 and the “Plant response rating, Crabgrass, Large” value [3, 12] was 85. For the same compound, the “Plant response rating, Crabgrass, Large” value [3, 18] was 95, the “Plant response rating, Crabgrass, Large” value [3, 14] was 100 and the “Plant response rating, Crabgrass, Large” value [3, 15] was 100. For the same compound, the “Plant response rating, Crabgrass, Large” value [3, 16] was 100, the “Plant response rating, Crabgrass, Large” value [3, 17] was 100 and the “Plant response rating, Ducksalad (0 to 100 scale, 0 is no effect, 100 is complete control)” value [4] was 100. For the same compound, the “Plant response rating, Oat, Wild” value (wild oat (Avena fatua); [10]) was 55, the “Plant response rating, Oat, Wild” value (wild oat (Avena fatua); [11]) was 85 and the “Plant response rating, Oat, Wild” value (wild oat (Avena fatua); [12]) was 85. For the same compound, the “Plant response rating, Oat, Wild” value (wild oat (Avena fatua); [13]) was 90, the “Plant response rating, Oat, Wild” value (wild oat (Avena fatua); [14]) was 80 and the “Plant response rating, Oat, Wild” value (wild oat (Avena fatua); [15]) was 90. The “Plant response rating, Oat, Wild” value (wild oat (Avena fatua); [16]) was 90, the “Plant response rating, Oat, Wild” value (wild oat (Avena fatua); [17]) was 90 and the “Plant response rating, Corn” value (corn (Zea mays) [5]; [10]) was 60. The “Plant response rating, Corn” value (corn (Zea mays) [5]; [11]) was 60, the “Plant response rating, Corn” value (corn (Zea mays) [5]; [12]) was 65 and the “Plant response rating, Corn” value (corn (Zea mays) [5]; [18]) was 65. For the same compound, the “Plant response rating, Corn” value (corn (Zea mays) [5]; [14]) was 25, the “Plant response rating, Corn” value (corn (Zea mays) [5]; [15]) was 35 and the “Plant response rating, Corn” value (corn (Zea mays) [5]; [16]) was 45. For the same compound, the “Plant response rating, Corn” value (corn (Zea mays) [5]; [17]) was 50, the Corn plant response rating (crop injury, 0 = no effect, 100 = complete kill) at 125 g/ha (corn (Zea mays) [6]; post-emergence, Postemergence, 0 to 100 scale, 0 is no effect, 100 is complete control) was 70% and the plant injury at 500 g/ha (corn (Zea mays) [6]; post-emergence, Postemergence, 500 g ai/ha, 0 to 100 scale, 0 is no effect, 100 is complete control, read-out: Corn plant response rating) was 80%. For the same compound, the Corn plant response rating (crop injury, 0 = no effect, 100 = complete kill) at 125 g/ha (corn (Zea mays) [6]; pre-emergence, Preemergence, 0 to 100 scale where 0 is no effect and 100 is complete control) was 30%, the Corn plant response rating (crop injury, 0 = no effect, 100 = complete kill) at 500 g/ha (corn (Zea mays) [6]; pre-emergence, Preemergence, 500 g ai/ha, 0 to 100 scale (0 no effect, 100 complete control)) was 50% and the “Plant response rating, Chickweed” value ([7]; 31 g ai/ha, scale 0 to 100 (0 no effect, 100 complete control)) was 98. For the same compound, the “Plant response rating, Chickweed” value ([7]; 62 g ai/ha, scale 0 to 100 (0 no effect, 100 complete control)) was 98, the “Plant response rating, Chickweed” value ([7]; 125 g ai/ha, scale 0 to 100, 0 no effect, 100 complete control) was 100 and the “Plant response rating, Chickweed” value ([7]; 250 g ai/ha, scale 0 to 100) was 100. For the same compound, the “Plant response rating, Foxtail, Giant” value [8, 10] was 85, the “Plant response rating, Foxtail, Giant” value [8, 11] was 85 and the “Plant response rating, Foxtail, Giant” value [8, 12] was 90. For the same compound, the “Plant response rating, Foxtail, Giant” value [8, 18] was 90, the “Plant response rating, Foxtail, Giant” value [8, 14] was 100 and the “Plant response rating, Foxtail, Giant” value [8, 15] was 100. The “Plant response rating, Foxtail, Giant” value [8, 16] was 100, the “Plant response rating, Foxtail, Giant” value [8, 17] was 100 and the “Plant response rating, Ragweed” value [9, 10] was 70. For the same compound, the “Plant response rating, Ragweed” value [9, 11] was 85, the “Plant response rating, Ragweed” value [9, 12] was 90 and the “Plant response rating, Ragweed” value [9, 13] was 90. The “Plant response rating, Ragweed” value [9, 14] was 40, the “Plant response rating, Ragweed” value [9, 15] was 60 and the “Plant response rating, Ragweed” value [9, 16] was 80. For the same compound, the “Plant response rating, Ragweed” value [9, 17] was 90.
